Measured values published in BindingDB's records for doi:10.7270/Q2319T8T (The Scripps Research Institute Molecular Screening Center, 2007).
pIC50: −log10 of the molar value.

Target: Steroidogenic factor 1 (Homo sapiens, UniProt Q13285)
Assay: SF-1 inhibitor potency, dose response, cell-based, CHO-K1, Gal4-SF-1 LBD, luciferase luminescence (AID 600)

Chain of Steroidogenic factor 1 (Q13285 whole entry, the tested form may be a part): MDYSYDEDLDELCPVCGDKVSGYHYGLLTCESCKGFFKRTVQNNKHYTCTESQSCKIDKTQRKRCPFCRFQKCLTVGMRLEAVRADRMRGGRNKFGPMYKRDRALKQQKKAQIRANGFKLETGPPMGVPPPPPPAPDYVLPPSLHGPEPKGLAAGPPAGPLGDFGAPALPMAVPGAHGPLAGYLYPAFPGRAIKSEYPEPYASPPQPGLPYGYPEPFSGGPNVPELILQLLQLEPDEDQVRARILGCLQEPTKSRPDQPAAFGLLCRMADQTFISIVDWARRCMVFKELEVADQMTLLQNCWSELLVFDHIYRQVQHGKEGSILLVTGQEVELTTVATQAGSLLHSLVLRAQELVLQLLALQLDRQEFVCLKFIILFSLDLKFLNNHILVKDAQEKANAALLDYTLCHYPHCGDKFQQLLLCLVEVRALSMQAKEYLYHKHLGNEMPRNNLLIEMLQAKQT

Row | SMILES | pIC50 | pIC50 (inactive by the depositor's call)
1 | c1ccc(-c2nc(N3CCCCCC3)c3ccccc3n2)nc1 [SMR000046752] | 5.46 | 
2 | COCCn1c(C)cc(C(=O)COC(=O)c2[nH]nc3ccccc23)c1C [SMR000068187] | 5.01 | 
3 | COc1cc(NS(=O)(=O)c2ccc(C)cc2)c2ncccc2c1 [SMR000071147] | < 5.44 | 
4 | C=CCOC(=O)c1[nH]c2c(c1C)C(=O)CC(c1cc(OC)c(OC)c(OC)c1)C2 (configuration not stated) [SMR000093465] |  | 4.74
5 | CC(C)(C)c1ccc(-c2cc(N)[nH]n2)cc1 [SMR000095263] | 5.28 | 
6 | CSC1=NC2=C(C(=O)CC(C)(C)C2)C(c2ccc(Cl)cc2)C1C#N (configuration not stated) [SMR000102109] | 4.67 | 
7 | COc1nc(Nc2nc(O)c3ccccc3n2)nc2ccc(C)cc12 [SMR000108404] | 5.68 | 
8 | CCOC(=O)C(C)Oc1cccc2c(=O)n(CC(=O)NCc3ccc4c(c3)OCO4)ccc12 (configuration not stated) [ethyl 2-[(2-{[(2H-1,3-benzodioxol-5-ylmethyl)carbamoyl]methyl}-1-oxo-1,2-dihydroisoquinolin-5-yl)oxy]propanoate] | 6.50 | 
9 | CCOC(=O)C1C(Cn2cnc3ccccc32)=NC(=O)NC1c1cc(C)ccc1C (configuration not stated) [ethyl 6-(benzimidazol-1-ylmethyl)-4-(2,5-dimethylphenyl)-2-oxidanylidene-3,4-dihydro-1H-pyrimidine-5-carboxylate] | 4.63 | 
10 | COC(=O)/C(=C1/Oc2cc(C)oc(=O)c2S1)C(F)(F)F [methyl (2E)-3,3,3-tris(fluoranyl)-2-(6-methyl-4-oxidanylidene-[1,3]oxathiolo[4,5-c]pyran-2-ylidene)propanoate] | 5.33 | 
11 | CCCCCOC(=O)c1[nH]c2c(c1C)C(=O)CC(c1ccco1)C2 (configuration not stated) [pentyl 6-(furan-2-yl)-3-methyl-4-oxidanylidene-1,5,6,7-tetrahydroindole-2-carboxylate] | < 5.91 | 
12 | COc1cc([C@@H]2c3cc4c(cc3[C@H](O)[C@H]3COC(=O)[C@H]23)OCO4)cc(OC)c1OC [podophyllotoxin] | 7.34 | 
